# From patent EP4813403A1, “USE OF GLP-1R/GIPR DOUBLE-TARGET AGONIST IN PREPARING ANIMAL DRUG” (Hangzhou Zhongmeihuadong Pharmaceutical Co., Ltd., priority 2023, dated 2025)
# Key:
# [1] = target: T1, human GIPR (Homo sapiens, UniProt P48546); assay: Agonistic activity on GIPR of different species (LANCE Ultra cAMP assay): human; format: cell-based; conditions: ratio of EC50 value of other species to human EC50 value
# T1 construct: expressed in transfected cells
# T1 sequence (P48546 22-466): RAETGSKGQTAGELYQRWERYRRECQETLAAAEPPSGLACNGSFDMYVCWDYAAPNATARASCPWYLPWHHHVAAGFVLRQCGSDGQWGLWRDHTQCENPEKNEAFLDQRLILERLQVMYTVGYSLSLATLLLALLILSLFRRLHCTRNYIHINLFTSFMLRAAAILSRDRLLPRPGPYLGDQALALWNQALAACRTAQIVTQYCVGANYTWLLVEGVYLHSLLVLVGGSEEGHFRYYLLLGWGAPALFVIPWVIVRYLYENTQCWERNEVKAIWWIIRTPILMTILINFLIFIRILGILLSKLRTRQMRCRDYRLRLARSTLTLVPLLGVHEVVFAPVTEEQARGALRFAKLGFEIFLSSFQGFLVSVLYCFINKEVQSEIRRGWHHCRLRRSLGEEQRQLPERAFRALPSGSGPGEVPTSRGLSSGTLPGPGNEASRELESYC
# Description: CHO-K1 cells were seeded in a 6-well plate at 0.6×10^6 cells/well and incubated overnight in an incubator at a temperature of 37 °C and a carbon dioxide concentration of 5%. The next day, CHO-K1 cell media were replaced. Then two tubes A and B were prepared for each plasmid. 100 µL Opti-MEM was added to tube A, then 4 µL Lipofectamine™ 3000 was added and mixed uniformly. 100 µL Opti-MEM was firstly added to tube B, then 2 µg of one of the plasmids (human GIPR-pcDNA5 (+) plasmid, dog GIPR-pcDNA5 (+) plasmid, mouse GIPR-pcDNA5 (+) plasmid, rat GIPR-pcDNA5 (+) plasmid, rabbit GIPR-pcDNA5 (+) plasmid, monkey GIPR-pcDNA5 (+) plasmid) was added and mixed uniformly, and 4 µL P3000™ was added to tube B and mixed uniformly (the ratio of plasmid to transfection reagent was 1 µg: 2 µL). […]
# 18-20 hours after transfection, human GIPR-CHO, dog GIPR-CHO, mouse GIPR-CHO, rat GIPR-CHO, rabbit GIPR-CHO, and monkey GIPR-CHO cells were resuspended in 1×Casein Stimulation Buffer (HBSS, 5 mM HEPES, 0.5 mM IBMX, 0.1% casein, pH7.4), and seeded into a 384-well cell culture plate at 9 µL/well (cell numbers being 1000, 2000, 2000, 2000, 2000, 2000 cells/well, respectively). […] The readings at 665 nm and 620 nm were determined with a 330 nm excitation light on a microplate reader. The 665 nm/620 nm reading ratio was calculated. […]
# [2] = system: obese cats; assay: Weight loss efficacy in obese cats; format: in vivo; conditions: s.c. QW escalating doses
# Description: This study evaluated the weight loss efficacy of the compound of this invention through multiple subcutaneous administrations to obese cats, with changes in cat body weights being monitored. The study involved cats aged 8 months or older with a body condition score (BCS) of ≥6. […] G11 (control group), G12, G13, and […]. . Group G11 served as the vehicle control group. […] The animals' body weights were measured at a fixed time every 7 days after administration, and food intake was measured once per day. Blood tests for routine and biochemical parameters were conducted before grouping and on […]. Body condition score (BCS), feline body mass index (FBMI), and abdominal circumference (AC) were measured once a week. The data were statistically analyzed using ANOVA. If ANOVA yielded statistical significance (p < 0.05) and the variances were homogeneous, Tukey's test was used for intergroup comparisons. If the variances were heterogeneous, Dunnett's T3 test was used. Results are presented as means and standard errors of the mean (Mean ± SEM). The significance level was set at 0.05, and both statistical and biological significance were considered in the analysis.
smiles,measurement,setting,value
CC[C@H](C)[C@H](NC(=O)C(C)(C)NC(=O)[C@H](Cc1ccc(O)cc1)NC(=O)[C@H](CC(=O)O)NC(=O)[C@H](CO)NC(=O)[C@@H](NC(=O)C(C)(Cc1ccccc1)NC(=O)[C@@H](NC(=O)CNC(=O)[C@H](CCC(=O)O)NC(=O)C(C)(C)NC(=O)[C@@H](N)Cc1ccc(O)cc1)[C@@H](C)O)[C@@H](C)O)C(=O)NC(C)(C)C(=O)N[C@@H](CC(C)C)C(=O)N[C@@H](CC(=O)O)C(=O)N[C@@H](CCCCN)C(=O)N[C@@H](CCC(N)=O)C(=O)N[C@@H](C)C(=O)N[C@@H](CCC(N)=O)C(=O)N[C@@H](C)C(=O)N[C@@H](CCC(=O)O)C(=O)N[C@@H](Cc1ccccc1)C(=O)N[C@H](C(=O)N[C@@H](CCCCNC(=O)COCCOCCNC(=O)COCCOCCNC(=O)COCCOCCNC(=O)CC[C@H](NC(=O)CCCCCCCCCCCCCCCCCCCCC(=O)O)C(=O)O)C(=O)N[C@@H](Cc1c[nH]c2ccccc12)C(=O)N[C@@H](CC(C)C)C(=O)N[C@@H](CC(C)C)C(=O)N[C@@H](CCCCN)C(=O)NCC(=O)NCC(=O)N1CCC[C@H]1C(=O)N[C@@H](CO)C(=O)N[C@@H](CO)C(=O)NCC(=O)N[C@@H](C)C(=O)N1CCC[C@H]1C(=O)N1CCC[C@H]1C(=O)N1CCC[C@H]1C(=O)N[C@@H](CO)C(=O)N[C@@H](CCCCN)C(N)=O)C(C)C (stereo partly shown) [Compound P016],GIPR EC50 ratio,[1],1.00
same,effective dose for weight loss,[2],96 nmol/kg
same,effective dose for weight loss,[2]; equivalent of the nmol/kg dose,0.5 mg/kg
same,maximum weight loss,[2]; five administrations,19.45%
